Experimental findings from the supplement of paper PMC10307832 are described below.

Experiment in all cases: relative viability (nuclei count vs DMSO), 5 days (fraction); higher = more cells survive
Compound in assay [1]: CO[C@H]1C[C@@H]2CC[C@@H](C)[C@@](O)(O2)C(=O)C(=O)N2CCCC[C@H]2C(=O)O[C@H]([C@H](C)C[C@@H]2CC[C@@H](OCCO)[C@H](OC)C2)CC(=O)[C@H](C)/C=C(\C)[C@@H](O)[C@@H](OC)C(=O)[C@H](C)C[C@H](C)/C=C/C=C/C=C/1C [Everolimus] + C[C@]1(O)C[C@@H](c2nc(-c3ccc4ccc(-c5ccccc5)nc4c3)c3c(N)nccn32)C1 [Linsitinib] (partner 1 µM)
The method in brief:
(§1)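 Each reported value is a median over duplicate plates. It expresses relative viability: treated-well nuclei count divided by vehicle-well nuclei count. Lung cancer cell lines in 1536-well plates were dosed by pin tool a day after seeding, alone with one drug or with a fixed anchor-drug dose plus five library-drug doses (not always all listed) in √10 steps, and nuclei were counted after 5 days.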

Compound in assay [2]: CO[C@H]1C[C@@H]2CC[C@@H](C)[C@@](O)(O2)C(=O)C(=O)N2CCCC[C@H]2C(=O)O[C@H]([C@H](C)C[C@@H]2CC[C@@H](OCCO)[C@H](OC)C2)CC(=O)[C@H](C)/C=C(\C)[C@@H](O)[C@@H](OC)C(=O)[C@H](C)C[C@H](C)/C=C/C=C/C=C/1C [Everolimus] + CC(=O)Nc1cccc(-n2c(=O)n(C3CC3)c(=O)c3c(Nc4ccc(I)cc4F)n(C)c(=O)c(C)c32)c1 [Trametinib] (partner 0.02 µM)
The procedure, abridged: as §1

Compound in assay [3]: CO[C@H]1C[C@@H]2CC[C@@H](C)[C@@](O)(O2)C(=O)C(=O)N2CCCC[C@H]2C(=O)O[C@H]([C@H](C)C[C@@H]2CC[C@@H](OCCO)[C@H](OC)C2)CC(=O)[C@H](C)/C=C(\C)[C@@H](O)[C@@H](OC)C(=O)[C@H](C)C[C@H](C)/C=C/C=C/C=C/1C [Everolimus] + COc1cccc2cc(-c3nc([C@H]4CC[C@H](C(=O)O)CC4)n4ncnc(N)c34)[nH]c12 [OSI-027] (partner 0.5 µM)
The procedure, abridged: as §1

Compound in assay [4]: CO[C@H]1C[C@@H]2CC[C@@H](C)[C@@](O)(O2)C(=O)C(=O)N2CCCC[C@H]2C(=O)O[C@H]([C@H](C)C[C@@H]2CC[C@@H](OCCO)[C@H](OC)C2)CC(=O)[C@H](C)/C=C(\C)[C@@H](O)[C@@H](OC)C(=O)[C@H](C)C[C@H](C)/C=C/C=C/C=C/1C [Everolimus] + CS(=O)(=O)CCNCc1ccc(-c2ccc3ncnc(Nc4ccc(OCc5cccc(F)c5)c(Cl)c4)c3c2)o1 [Lapatinib] (partner 2 µM)
The method in brief: as §1

Consider NCI-H1666, for which the relative viability in assay [1] (first compound 0.01 µM) came to 0.644; in assay [1] (first compound 0.03162 µM), 0.407; in assay [1] (first compound 0.1 µM) it was 0.468; in assay [1] (first compound 0.3162 µM), 0.455; in assay [1] (first compound 1 µM), 0.468; in assay [2] (first compound 0.01 µM), 0.832. In addition, the relative viability in assay [2] (first compound 0.03162 µM) was 0.911; in assay [2] (first compound 0.1 µM), 0.867; in assay [2] (first compound 0.3162 µM), 0.851; in assay [2] (first compound 1 µM), 0.705; in assay [3] (first compound 0.01 µM), 0.722; in assay [3] (first compound 0.03162 µM) it was 0.725. In addition, the relative viability in assay [3] (first compound 0.1 µM) came out at 0.719; in assay [3] (first compound 0.3162 µM), 0.811; in assay [3] (first compound 1 µM), 0.722; in assay [4] (first compound 0.01 µM), 0.459; in assay [4] (first compound 0.03162 µM), 0.445; in assay [4] (first compound 0.1 µM) it was 0.335. Besides, the figures for the relative viability in assay [4] (first compound 0.3162 µM) and in assay [4] (first compound 1 µM) were 0.45 and 0.475, respectively.
As for NCI-H1734, the relative viability in assay [1] (first compound 0.01 µM) was found to be 0.416; in assay [1] (first compound 0.03162 µM), 0.568; in assay [1] (first compound 0.1 µM), 0.518; in assay [1] (first compound 0.3162 µM), 0.467; in assay [1] (first compound 1 µM), 0.575; in assay [2] (first compound 0.01 µM), 0.502. The relative viability in assay [2] (first compound 0.03162 µM) was found to be 0.473; in assay [2] (first compound 0.1 µM), 0.404; in assay [2] (first compound 0.3162 µM) it was 0.453; in assay [2] (first compound 1 µM), 0.46; in assay [3] (first compound 0.01 µM), 0.408; in assay [3] (first compound 0.03162 µM), 0.411. Also, the relative viability in assay [3] (first compound 0.1 µM) amounted to 0.365; in assay [3] (first compound 0.3162 µM), 0.417; in assay [3] (first compound 1 µM) it was 0.423; in assay [4] (first compound 0.01 µM), 0.715; in assay [4] (first compound 0.03162 µM) it was 0.582; in assay [4] (first compound 0.1 µM), 0.582. Besides, the relative viability in assay [4] (first compound 0.3162 µM) amounted to 0.551; in assay [4] (first compound 1 µM), 0.73.
NCI-H1755: the relative viability in assay [1] (first compound 0.01 µM) stood at 0.883; in assay [1] (first compound 0.03162 µM), 0.717; in assay [1] (first compound 0.1 µM), 0.665; in assay [1] (first compound 0.3162 µM), 0.727; in assay [1] (first compound 1 µM) it was 0.658; in assay [2] (first compound 0.01 µM), 0.666. Moreover, the relative viability was determined as 0.579 in assay [2] (first compound 0.03162 µM); 0.553 in assay [2] (first compound 0.1 µM); 0.545 in assay [2] (first compound 0.3162 µM); 0.453 in assay [2] (first compound 1 µM); 0.655 in assay [3] (first compound 0.01 µM); 0.63 in assay [3] (first compound 0.03162 µM). Moreover, the relative viability was found to be 0.573 in assay [3] (first compound 0.1 µM); 0.647 in assay [3] (first compound 0.3162 µM); 0.593 in assay [3] (first compound 1 µM); 0.866 in assay [4] (first compound 0.01 µM); 0.964 in assay [4] (first compound 0.03162 µM); 0.769 in assay [4] (first compound 0.1 µM). The values for the relative viability in assay [4] (first compound 0.3162 µM) and in assay [4] (first compound 1 µM) were 0.876 and 0.77, respectively.
Turning to NCI-H1792, the relative viability was found to be 0.449 in assay [1] (first compound 0.01 µM); 0.38 in assay [1] (first compound 0.03162 µM); 0.202 in assay [1] (first compound 0.1 µM); 0.148 in assay [1] (first compound 0.3162 µM); 0.159 in assay [1] (first compound 1 µM); 0.196 in assay [2] (first compound 0.01 µM). In addition, the relative viability is 0.251 in assay [2] (first compound 0.03162 µM); 0.215 in assay [2] (first compound 0.1 µM); 0.164 in assay [2] (first compound 0.3162 µM); 0.16 in assay [2] (first compound 1 µM); 0.646 in assay [3] (first compound 0.01 µM); 0.489 in assay [3] (first compound 0.03162 µM). In addition, the relative viability in assay [3] (first compound 0.1 µM) stood at 0.427; in assay [3] (first compound 0.3162 µM), 0.421; in assay [3] (first compound 1 µM), 0.362; in assay [4] (first compound 0.01 µM), 0.637; in assay [4] (first compound 0.03162 µM) it was 0.656; in assay [4] (first compound 0.1 µM) it was 0.679. Further, the relative viability in assay [4] (first compound 0.3162 µM) was 0.593; in assay [4] (first compound 1 µM) it was 0.734.
NCI-H1793: the relative viability in assay [1] (first compound 0.01 µM) turned out to be 0.299; in assay [1] (first compound 0.03162 µM), 0.188; in assay [1] (first compound 0.1 µM), 0.333; in assay [1] (first compound 0.3162 µM), 0.311; in assay [1] (first compound 1 µM), 0.246; in assay [2] (first compound 0.01 µM) it was 0.315. The relative viability in assay [2] (first compound 0.03162 µM) was found to be 0.247; in assay [2] (first compound 0.1 µM), 0.247; in assay [2] (first compound 0.3162 µM), 0.312; in assay [2] (first compound 1 µM), 0.228; in assay [3] (first compound 0.01 µM), 0.236; in assay [3] (first compound 0.03162 µM) it was 0.189. Further, the relative viability in assay [3] (first compound 0.1 µM) was determined as 0.185; in assay [3] (first compound 0.3162 µM) it was 0.21; in assay [3] (first compound 1 µM) it was 0.185; in assay [4] (first compound 0.01 µM) it was 0.316; in assay [4] (first compound 0.03162 µM), 0.337; in assay [4] (first compound 0.1 µM), 0.378. In addition, the relative viability in assay [4] (first compound 0.3162 µM) came to 0.352; in assay [4] (first compound 1 µM) it was 0.278.
Turning to NCI-H1915, the relative viability in assay [1] (first compound 0.01 µM) stood at 0.994; in assay [1] (first compound 0.03162 µM), 0.973; in assay [1] (first compound 0.1 µM), 0.935; in assay [1] (first compound 0.3162 µM), 0.914; in assay [1] (first compound 1 µM), 0.827; in assay [2] (first compound 0.01 µM) it was 0.233. The relative viability in assay [2] (first compound 0.03162 µM) turned out to be 0.197; in assay [2] (first compound 0.1 µM) it was 0.204; in assay [2] (first compound 0.3162 µM) it was 0.228; in assay [2] (first compound 1 µM) it was 0.191; in assay [3] (first compound 0.01 µM), 0.531; in assay [3] (first compound 0.03162 µM) it was 0.516. The relative viability in assay [3] (first compound 0.1 µM) turned out to be 0.45; in assay [3] (first compound 0.3162 µM), 0.512; in assay [3] (first compound 1 µM), 0.49; in assay [4] (first compound 0.01 µM) it was 0.903; in assay [4] (first compound 0.03162 µM), 0.904; in assay [4] (first compound 0.1 µM), 0.877. For the same cell line, the figures for the relative viability in assay [4] (first compound 0.3162 µM) and in assay [4] (first compound 1 µM) were 0.826 and 0.88, respectively.
With NCI-H1944, the relative viability is 0.84 in assay [1] (first compound 0.01 µM); 0.824 in assay [1] (first compound 0.03162 µM); 0.684 in assay [1] (first compound 0.1 µM); 0.754 in assay [1] (first compound 0.3162 µM); 0.715 in assay [1] (first compound 1 µM); 0.311 in assay [2] (first compound 0.01 µM). Also, the relative viability in assay [2] (first compound 0.03162 µM) stood at 0.303; in assay [2] (first compound 0.1 µM), 0.341; in assay [2] (first compound 0.3162 µM) it was 0.312; in assay [2] (first compound 1 µM), 0.298; in assay [3] (first compound 0.01 µM), 0.365; in assay [3] (first compound 0.03162 µM), 0.305. Also, the relative viability in assay [3] (first compound 0.1 µM) amounted to 0.294; in assay [3] (first compound 0.3162 µM), 0.358; in assay [3] (first compound 1 µM), 0.326; in assay [4] (first compound 0.01 µM), 0.633; in assay [4] (first compound 0.03162 µM), 0.669; in assay [4] (first compound 0.1 µM), 0.617. Moreover, the relative viability came to 0.604 in assay [4] (first compound 0.3162 µM) and 0.541 in assay [4] (first compound 1 µM).
